# Measurements reported in patent US10889569B2, “Condensed ring group azacyclobutyl triazole derivative, preparation method therefor and use thereof in medicine” (Jiangsu Hengrui Medicine Co., Ltd., priority 2016, dated 2021).
# Key:
# Type in all cases: cell-based
# human V2R = human V2R (Homo sapiens (Human), UniProt P30518); test: Inhibition activity on human V2R (cAMP HTRF assay, HEK293/human V2R pool cells); details: vasopressin
# Experimental: The inhibition effect of the compounds of the present invention on the activity of human V2R protein expressed in HEK293/human V2R cells was determined by the following experimental method:
# The pcDNA3.1-V2R plasmid was transferred into HEK293 cells with the Lipofectamine® 3000 transfection reagent; G418 was added on the next day, and the HEK293/human V2R pool cell lines were obtained.
# HEK293/human V2R pool cells were dissociated with the cell dissociation solution (enzyme-free), thereby dissociating the cells from the cell culture dish into individual cells. Then the cell solution was blown well, and centrifuged to remove the supernatant. The cells were resuspended in the test buffer 1 (1×HBSS+20 mM HEPES+0.1% BSA) and counted. The cell density was adjusted to 1250 cells/5 μl, i.e., 2.5*10^5/ml.
# The compounds were formulated into a series of concentrations of 20 mM, 6.67 mM, 2.22 mM, 0.74 mM, 0.25 mM, 0.08 mM, 27.4 μM, 9.14 μM, 3.05 μM, 1.02 μM, 0.34 μM and 0 μM (DMSO) with pure DMSO. The compounds were then diluted into a 4-fold working concentration solution with the test buffer 2 (test buffer 1+1 mM IBMX).
# Agonist: 460 μM vasopressin was used as the mother liquor, which was formulated at 2 μM with DMSO, and then diluted to 0.5 nM with the test buffer 2.
# Standards: The first point was 20 μl of a stock solution (2848 nM), which was diluted successively to a total of eleven concentrations in a 4-fold concentration gradient with the test buffer 1 from the second point.
# 1. The well-mixed cells were added to a 384-well plate (5 μl/well) without changing the tip.
# 2. The test compounds and positive compound formulated were added (2.5 μl/well), and the tips were changed.
# 3. The plate was centrifuged at 1000 rpm for 1 min, shaken for 30 sec to mix well, and incubated at room temperature for 30 min.
# 4. The standard curve wells were added with the test buffer 2 (5 μl/well).
# 5. The formulated agonist was added (2.5 μl/well), and the tips were changed; the plate was centrifuged at 1000 rpm for 1 min, shaken for 30 sec to mix well, and incubated at room temperature for 30 min.
# 6. cAMP-d2 (a component in the cAMP dynamic 2 kit) and Anti-cAMP-Eu-Cryptate (a component in the cAMP dynamic 2 kit) were formulated in the dark, which were then mixed well with cAMP lysate (a component in the cAMP dynamic 2 kit) in a ratio of 1:4. Each well was added with the formulated cAMP-d2 solution (5 μl/well), followed by addition of Anti-cAMP-Eu-Cryptate (5 μl/well). The plate was shaken for 30 sec to mix well, and incubated in the dark at room temperature for 1 h.
# The HTRF Signals were Read by the PheraStar Multi-Function Microplate Reader.
# The data in this test was processed using the data processing software Graphpad Prism.
# The inhibition activity of the compounds of the present invention on human V2R was determined by the above test, and the IC50 values obtained are shown in Table 4.
# human V1aR = human V1aR (Homo sapiens (Human), UniProt P37288); test: Inhibition activity on human V1aR (Fluo-4 calcium assay, HEK293/human V1aR stably transfected cells); details: vasopressin 3 nM
# Experimental: The inhibition effect of the compounds of the present invention on the activity of human V1 aR protein expressed in HEK293/human V1aR stably transfected cells was determined by the following experimental method:
# The pcDNA3.1-V1aR plasmid was transferred into HEK293 cells with the Lipofectamine® 3000 transfection reagent; G418 was added on the next day to screen, and monoclonal cell lines were selected.
# (§1) HEK293/human V1aR stably transfected cells were inoculated in a 96-well plate with an inoculation density of 25,000 cells/well one day in advance. On the next day, a loading buffer containing Fluo-4 dye was formulated using the reagents in the Fluo-4 NW calcium assay kit, and the culture medium was then removed; 100 μl of the loading buffer containing Fluo-4 dye were added to each well, and the plate was incubated at 37° C. for 30 minutes. After that, the plate was moved to room temperature and equilibrated for 10 minutes. The compounds were formulated at 10^6, 10^5, 10^4, 10^3, 10^2 and 10^1 nM. 1 μl of the compounds in each concentration was added to each well, and the plate was incubated at room temperature for 10 minutes. 50 μl of vasopressin polypeptide (3 nM) were automatically added by the machine, and the values were immediately detected at 494/516 nM by the flexstation 3 microplate reader. IC50 values of the compounds were calculated by Graphpad prism software using fluorescence signals corresponding to different concentrations.
# The inhibition activity of the compounds of the present invention on human V1aR was determined by the above test, and the obtained IC50 values are shown in Table 2.
# human V1bR = human V1bR (Homo sapiens, UniProt P47901); test: Inhibition activity on human V1bR (Fluo-4 calcium assay, HEK293/human V1bR pool cells); details: vasopressin 3 nM
# Experimental: The inhibition effect of the compounds of the present invention on the activity of human V1bR protein expressed in HEK293/human V1bR cells was determined by the following experimental method:
# The pcDNA3.1-V1bR plasmid was transferred into HEK293 cells with the Lipofectamine® 3000 transfection reagent; G418 was added on the next day, and the HEK293/human V1bR pool cell lines were obtained.
# as §1, with “HEK293/human V1bR pool” for “HEK293/human V1aR stably transfected”, “formulated into” for “formulated at”
# The inhibition activity of the compounds of the present invention on human V1bR was determined by the above test, and the obtained IC50 values are shown in Table 3.
# human OTR = human OTR (Homo sapiens, UniProt P30559); test: Inhibition activity on human OTR (Fluo-4 calcium assay, HEK293/human OTR stably transfected cells); details: oxytocin 3 nM
# Experimental: The inhibition effect of the compounds of the present invention on the activity of human OTR protein expressed in HEK293/human OTR stably transfected cells was determined by the following experimental method:
# The pcDNA3.1-hOTR plasmid was transferred into HEK293 cells with the Lipofectamine® 3000 transfection reagent; G418 was added on the next day to screen, and monoclonal cell lines were selected.
# as §1, with “OTR” for “V1aR”, “oxytocin” for “vasopressin”
# The inhibition activity of the compounds of the present invention on human OTR was determined by the above test, and the obtained IC50 values are shown in Table 1.
# Chain of human V2R (P30518 whole entry): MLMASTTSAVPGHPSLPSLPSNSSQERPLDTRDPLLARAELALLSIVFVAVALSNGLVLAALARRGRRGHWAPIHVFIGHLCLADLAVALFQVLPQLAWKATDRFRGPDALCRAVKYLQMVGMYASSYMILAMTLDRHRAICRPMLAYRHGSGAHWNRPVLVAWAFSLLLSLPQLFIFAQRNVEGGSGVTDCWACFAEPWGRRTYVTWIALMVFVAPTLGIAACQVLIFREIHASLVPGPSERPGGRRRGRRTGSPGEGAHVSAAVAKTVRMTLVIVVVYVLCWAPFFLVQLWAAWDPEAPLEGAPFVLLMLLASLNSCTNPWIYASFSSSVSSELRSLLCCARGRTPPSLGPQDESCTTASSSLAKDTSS
# Chain of human V1aR (P37288 whole entry): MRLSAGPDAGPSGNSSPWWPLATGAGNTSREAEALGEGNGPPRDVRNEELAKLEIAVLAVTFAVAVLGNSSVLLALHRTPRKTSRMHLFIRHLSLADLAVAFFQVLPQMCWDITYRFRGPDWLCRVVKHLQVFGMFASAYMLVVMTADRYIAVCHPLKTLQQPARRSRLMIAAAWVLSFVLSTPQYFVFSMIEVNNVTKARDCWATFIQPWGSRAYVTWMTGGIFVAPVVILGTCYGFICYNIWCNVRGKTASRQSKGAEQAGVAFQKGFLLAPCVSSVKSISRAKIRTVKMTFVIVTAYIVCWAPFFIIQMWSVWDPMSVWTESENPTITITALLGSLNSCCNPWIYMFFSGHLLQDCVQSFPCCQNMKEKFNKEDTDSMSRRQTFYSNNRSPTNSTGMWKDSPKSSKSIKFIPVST
IC50 (human V2R) [µM],IC50 (human V1aR) [µM],IC50 (human V1bR) [µM],IC50 (human OTR) [µM],Compound
> 100,18.1,448,,"COCc1nnc(N2CC(c3ccnc4cc(F)ccc34)C2)n1-c1ccc(OC)nc1 [Example 1, 7-Fluoro-4-(1-(5-(methoxymethyl)-4-(6-methoxypyridin-3-yl)-4H-1,2,4-triazol-3-yl)azetidin-3-yl)quinoline]"
12.5,1.2,42.7,0.04,"COCc1nnc(N2CC(c3csc4cc(F)ccc34)C2)n1-c1ccc(OC)nc1 [Example 9, 5-(3-(3-(6-Fluorobenzo[b]thiophen-3-yl)azetidin-1-yl)-5-(methoxymethyl)-4H-1,2,4-triazol-4-yl)-2-methoxypyridine]"
20.7,5.7,12.4,0.091,"COCc1nnc(N2CC(n3cc(Cl)c4cc(F)ccc43)C2)n1-c1ccc(OC)nc1 [Example 10, 3-Chloro-5-fluoro-1-(1-(5-(methoxymethyl)-4-(6-methoxypyridin-3-yl)-4H-1,2,4-triazol-3-yl)azetidin-3-yl)-1H-indole]"
25.7,2.3,,0.221,"COCc1nnc(N2CC(c3coc4cc(F)ccc34)C2)n1-c1ccc(OC)nc1 [Example 11, 5-(3-(3-(6-Fluorobenzofuran-3-yl)azetidin-1-yl)-5-(methoxymethyl)-4H-1,2,4-triazol-4-yl)-2-methoxypyridine]"
11.8,10.9,25.8,0.13,"COCc1nnc(N2CC(c3cn(C)c4cc(F)ccc34)C2)n1-c1ccc(OC)nc1 [Example 14, 6-Fluoro-3-(1-(5-(methoxymethyl)-4-(6-methoxypyridin-3-yl)-4H-1,2,4-triazol-3-yl)azetidin-3-yl)-1-methyl-1H-indole]"
59.4,59.5,59.5,,"COCc1nnc(N2CC(N3C(=O)COc4cc(F)ccc43)C2)n1-c1ccc(OC)nc1 [Example 18, 7-Fluoro-4-(1-(5-(methoxymethyl)-4-(6-methoxypyridin-3-yl)-4H-1,2,4-triazol-3-yl)azetidin-3-yl)-2H-benzo[b][1,4]oxazin-3(4H)-one]"
17.3,2.7,38.8,0.025,"COCc1nnc(N2CC(C3CCOc4cc(F)ccc43)C2)n1-c1ccc(OC)nc1 (centres unmarked) [Example 21, 5-(3-(3-(7-Fluorobenzodihydropyran-4-yl)azetidin-1-yl)-5-(methoxymethyl)-4H-1,2,4-triazol-4-yl)-2-methoxypyridine]"
52,,,,"COCc1nnc(N2CC(N3CCc4cc(F)ccc43)C2)n1-c1ccc(OC)nc1 [Example 23, 5-Fluoro-1-(1-(5-(methoxymethyl)-4-(6-methoxypyridin-3-yl)-4H-1,2,4-triazol-3-yl)azetidin-3-yl)indoline]"
67.2,10.7,44.1,0.1,"COCc1nnc(N2CC(N3CCOc4cc(F)ccc43)C2)n1-c1ccc(OC)nc1 [Example 24, 7-Fluoro-4-(1-(5-(methoxymethyl)-4-(6-methoxypyridin-3-yl)-4H-1,2,4-triazol-3-yl)azetidin-3-yl)-3,4-dihydro-2H-benzo[b][1,4]oxazine]"
1.4,,61,0.007,"CCOCc1nnc(N2CC(N3CCCc4cc(F)ccc43)C2)n1-c1ccc(OC)nc1 [Example 26, 1-(1-(5-(Ethoxymethyl)-4-(6-methoxypyridin-3-yl)-4H-1,2,4-triazol-3-yl)azetidin-3-yl)-6-fluoro-1,2,3,4-tetrahydroquinoline]"
9.1,,13.9,0.008,"CCOCc1nnc(N2CC(N3CCCc4cc(F)ccc43)C2)n1-c1ccc2c(c1)OCO2 [Example 27, 1-(1-(4-(Benzo[d][1,3]dioxolan-5-yl)-5-(ethoxymethyl)-4H-1,2,4-triazol-3-yl)azetidin-3-yl)-6-fluoro-1,2,3,4-tetrahydroquinoline]"
12.1,6.2,95.1,0.064,"COc1ccc(-n2c(C)nnc2N2CC(N3CCCc4cc(F)ccc43)C2)cn1 [Example 29, 6-Fluoro-1-(1-(4-(6-methoxypyridin-3-yl)-5-methyl-4H-1,2,4-triazol-3-yl)azetidin-3-yl)-1,2,3,4-tetrahydroquinoline]"
6.7,8.5,20.7,0.004,"COCc1nnc(N2CC(N3CCCc4cc(F)ccc43)C2)n1-c1ccc(OC)nc1 [Example 30, 6-Fluoro-1-(1-(5-(methoxymethyl)-4-(6-methoxypyridin-3-yl)-4H-1,2,4-triazol-3-yl)azetidin-3-yl)-1,2,3,4-tetrahydroquinoline]"
> 100,23,77.2,,"COc1ccc(-n2c(C)nnc2N2CC(N3CCOc4cc(F)ccc43)C2)cn1 [Example 32, 7-Fluoro-4-(1-(4-(6-methoxypyridin-3-yl)-5-methyl-4H-1,2,4-triazol-3-yl)azetidin-3-yl)-3,4-dihydro-2H-benzo[b][1,4]oxazine]"
